pIC50: −log10 of the molar value. ≈ marks a conversion by molar mass, not a printed value. Like-named read-outs stand apart in the source and are kept apart here.
How the values were obtained:
[1] = tested on: phosphatidylcholine biosynthesis; conditions: cited from earlier work
[2] = tested on: human immunodeficiency virus-infected cell system; conditions: cited from earlier work
[3] = tested on: Trypanosoma cruzi; conditions: cited from earlier work
[4] = target: thiol-protease papain (Carica papaya, UniProt P00784); test: Inhibition of thiol enzymes by allicin; format: biochemical; conditions: could be reactivated with thiol-containing compounds
[5] = tested on: Candida albicans; conditions: cited from earlier work
[6] = tested on: Acetate incorporation into fatty acids of isolated plastids; conditions: read-out: 50% inhibitory concentration (I 50 value); cited from earlier work
[7] = target: NADP-dependent alcohol dehydrogenase (Thermoanaerobacter brockii, UniProt P14941); test: Inhibition of thiol enzymes by allicin; format: biochemical, Thermoanaerobium brockii; conditions: could be reactivated with thiol-containing compounds
[8] = tested on: alcohol dehydrogenases; test: Inhibition of thiol-containing enzymes of the amoeba parasite; format: biochemical
[9] = tested on: S. fiexneri Y; conditions: rabbit; cited from earlier work
[10] = tested on: Enterococcus faecium; conditions: Clinical MDR strain; cited from earlier work
[11] = tested on: trophozoites of E. histolytica; conditions: 5 μg/mL, in vitro; cited from earlier work
[12] = tested on: Streptococcus progenies; conditions: Sensitive; cited from earlier work
[13] = tested on: tissue-cultured mammalian cells; conditions: cited from earlier work
[14] = tested on: Pseudomonas aeruginosa; conditions: cited from earlier work
[15] = tested on: Proteus mirabilis; conditions: cited from earlier work
[16] = tested on: Giardia lamblia; conditions: 30 μg/mL; cited from earlier work
[17] = tested on: Salmonella typhimurium; conditions: 0.2 to 0.5 mM; cited from earlier work
[18] = tested on: Acinetobacter baumanii; conditions: Clinical isolate; cited from earlier work
[19] = tested on: Candida tropicalis; conditions: cited from earlier work
[20] = target: acetyl-CoA-forming system, consisting of acetate kinase and phosphotransacetyl-CoA synthetase; conditions: cited from earlier work
[21] = tested on: thioredoxin reductases; test: Inhibition of thiol-containing enzymes of the amoeba parasite; format: biochemical
[22] = tested on: methicillin resistant Staphylococcus aureus, multidrug-resistant enterotoxicogenic Escherichia coli, Enterococcus, Shigella dysenteriae, S. flexneni and S. …; conditions: strains resistant to antibiotics; cited from earlier work
[23] = Candida neoformans; cited from earlier work
[24] = tested on: Leishmania major; conditions: 30 μg/mL; cited from earlier work
[25] = target: T1, NAD-dependent alcohol dehydrogenase (Equus caballus, UniProt P00327); test: Inhibition of thiol enzymes by allicin; format: biochemical, horse; conditions: could be reactivated with thiol-containing compounds
T1 construct: the NAD-dependent alcohol dehydrogenase from horse liver; from tissue; host or cells: horse liver

[26] = tested on: Staphylococcus aureus; conditions: cited from earlier work
[27] = tested on: Candida parapsilosis; conditions: cited from earlier work
[28] = tested on: Escherichia coli; conditions: cited from earlier work
[29] = tested on: Streptococcus β hemolyticus; conditions: Clinical MDR strain; cited from earlier work
[30] = tested on: cysteine proteinases; test: Inhibition of thiol-containing enzymes of the amoeba parasite; format: biochemical
[31] = tested on: tissue-cultured mammalian cells
[32] = tested on: Crithidia fasciculata; conditions: 30 μg/mL; cited from earlier work
[33] = tested on: mucoid strains of Pseudomonas aeruginosa, Streptococcus β hemnolyticus and Enterococcus faecium; conditions: cited from earlier work
[34] = tested on: Candida krusei; conditions: cited from earlier work
[35] = tested on: Klebsiella pneumoniae; conditions: Clinical isolate; cited from earlier work
[36] = tested on: Leptornonas colosoma; conditions: 30 μg/mL; cited from earlier work
[37] = tested on: Candida; conditions: pure allicin; cited from earlier work
[38] = tested on: Entainoeba histolytica; conditions: cited from earlier work
[39] = tested on: Torulopsis glabrata; conditions: cited from earlier work
[40] = alliin in itself; cited from earlier work

Chain of thiol-protease papain (P00784 134-345): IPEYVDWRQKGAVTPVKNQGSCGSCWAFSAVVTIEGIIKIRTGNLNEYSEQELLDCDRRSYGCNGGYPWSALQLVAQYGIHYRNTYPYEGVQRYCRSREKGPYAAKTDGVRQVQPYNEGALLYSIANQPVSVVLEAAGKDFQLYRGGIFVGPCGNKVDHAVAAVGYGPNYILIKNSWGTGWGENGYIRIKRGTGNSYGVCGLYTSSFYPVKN
Chain of NADP-dependent alcohol dehydrogenase (P14941 whole entry): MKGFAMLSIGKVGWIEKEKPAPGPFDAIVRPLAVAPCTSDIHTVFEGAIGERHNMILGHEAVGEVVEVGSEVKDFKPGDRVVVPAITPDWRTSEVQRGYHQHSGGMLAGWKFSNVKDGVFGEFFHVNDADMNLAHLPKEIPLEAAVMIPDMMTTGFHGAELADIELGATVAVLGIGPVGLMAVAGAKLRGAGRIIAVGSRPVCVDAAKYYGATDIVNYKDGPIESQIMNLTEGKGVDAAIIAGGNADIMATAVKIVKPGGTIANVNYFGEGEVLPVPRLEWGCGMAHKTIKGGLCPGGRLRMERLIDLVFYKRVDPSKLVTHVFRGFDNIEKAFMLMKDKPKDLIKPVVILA
T1 sequence (P00327 2-375 limits assumed): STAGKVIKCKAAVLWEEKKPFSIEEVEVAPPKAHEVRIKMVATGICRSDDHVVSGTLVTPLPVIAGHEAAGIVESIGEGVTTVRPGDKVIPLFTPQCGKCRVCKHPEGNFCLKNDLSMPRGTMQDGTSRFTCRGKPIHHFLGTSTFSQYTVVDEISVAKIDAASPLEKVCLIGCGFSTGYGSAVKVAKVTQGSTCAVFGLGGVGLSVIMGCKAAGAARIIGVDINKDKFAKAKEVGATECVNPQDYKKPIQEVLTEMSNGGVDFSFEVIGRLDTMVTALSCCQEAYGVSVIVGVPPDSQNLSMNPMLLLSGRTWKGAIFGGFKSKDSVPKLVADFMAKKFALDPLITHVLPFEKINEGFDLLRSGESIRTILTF

## C=CCSSC=CC[S+]([O-])CC=C (mixture of isomers) [ajoene]
[1]
  phosphatidylcholine biosynthesis: inhibit phosphatidylcholine biosynthesis
[2]
  integrin-dependent processes: block the integrin-dependent processes
[3]
  proliferation of Trypanosoma cruzi: inhibit the proliferation

## C=CCS[S+]([O-])CC=C (centres unmarked) [allicin]
[4]
  inhibition of papain: irreversibly inhibited
[5]; Clinical isolates
  Allicin concentration MIC: 0.8 µg/mL
[5]
  Allicin concentration MIC: 0.3 µg/mL
[6]
  pIC50: > 2.00
[7]
  inhibition of NADP-dependent alcohol dehydrogenase from Thermoanaerobium brockii: irreversibly inhibited
[8]
  concentration at which inhibition was observed: > 10 µg/mL
[9]
  antibacterial activity in vivo: in vivo antibacterial activity
[10]
  Allicin Concentration (LD50 ug/ml): >100 µg/mL
[11]
  inhibition of virulence of trophozoites: 90%
[12]
  Allicin Concentration (LD50 ug/ml): 3 µg/mL
[13]
  concentration at which some toxicity towards tissue-cultured mammalian cells was observed: above 100 μM
[14]; MDR mucoid strain
  Allicin Concentration (LD50 ug/ml): >100 µg/mL
[14]; Sensitive to cefprozil
  Allicin Concentration (LD50 ug/ml): 15 µg/mL
[15]; Prloteus marbles, Sensitive
  Allicin Concentration (LD50 ug/ml): 15 µg/mL
[15]; Proteus mirabilis, Clinical MDR strain
  Allicin Concentration (LD50 ug/ml): >30 µg/mL
[16]
  growth inhibition: very efficiently inhibited
[17]
  effect on DNA and protein synthesis: partially inhibit
  effect on RNA synthesis: immediate
[18]
  Allicin Concentration (LD50 ug/ml): 15 µg/mL
[19]
  Allicin concentration MIC: 0.3 µg/mL
[20]
  kind of inhibition: noncovalent and reversible
[21]
  concentration at which inhibition was observed: > 10 µg/mL
[22]
  sensitivity to allicin: sensitive
[23]
  Allicin concentration MIC: 0.3 µg/mL
[24]
  growth inhibition: very efficiently inhibited
[25]
  inhibition of NAD-dependent alcohol dehydrogenase from horse liver: irreversibly inhibited
[26]; Methicillin resistant
  Allicin Concentration (LD50 ug/ml): 12 µg/mL
[26]; Sensitive
  Allicin Concentration (LD50 ug/ml): 12 µg/mL
[27]
  Allicin concentration MIC: 0.15 µg/mL
[28]; Multidrug resistant MDR
  Allicin Concentration (LD50 ug/ml): 15 µg/mL
[28]; Sensitive to antibiotics
  Allicin Concentration (LD50 ug/ml): 15 µg/mL
[29]
  Allicin Concentration (LD50 ug/ml): >100 µg/mL
[30]
  concentration at which inhibition was observed: > 10 µg/mL
[31]
  concentration toxic to tissue-cultured mammalian cells: > 100 µg/mL
[32]
  growth inhibition: very efficiently inhibited
[33]
  sensitivity to allicin: resistant
[34]
  Allicin concentration MIC: 0.3 µg/mL
[35]
  Allicin Concentration (LD50 ug/ml): 8 µg/mL
[36]
  growth inhibition: very efficiently inhibited
[37]
  minimum inhibitory concentration: 7 µg/mL (≈ 43.1 µM)
[38]
  concentration that totally inhibits the growth of amoeba cultures: 30 µg/mL
[39]; Clinical isolates
  Allicin concentration MIC: 1.9 µg/mL
[39]
  Allicin concentration MIC: 0.3 µg/mL

## (+)-S-allyl-L-cysteine-sulfoxide [alliin]
[40]
  antimicrobial activity: no antimicrobial activity
